Drawing on patent US8119671B2, “Isoxazoline-substituted benzamide compound and pest control agent” (Nissan Chemical Industries, Ltd., priority 2007, dated 2012), this text covers mortality for eight compounds.

What all share (format): in vivo
The test system of experiment [1] is Helicoverpa armigera. Put plainly: Test Example 17: Mortality Test for Helicoverpa armigera (Comparative Test 1). As to conditions: 144 h, 3-instar larvae, after 6 days; for mortality at 3.3 ppm: concentration 3.3 ppm; for mortality at 10 ppm: concentration 10 ppm; for mortality at 33 ppm: concentration 33 ppm; for mortality at 100 ppm: concentration 100 ppm; for mortality at 0.1 ppm: concentration 0.1 ppm; for mortality at 0.3 ppm: concentration 0.3 ppm; for mortality at 1 ppm: concentration 1 ppm. As for the experimental part:
10% emulsifiable concentrates of the compound of the present invention and a comparative compound were diluted with water containing a spreader to prepare drug solutions in a predetermined concentration. In these drug solutions, a leaf of Canarium album was immersed for about 10 seconds and was air-dried and then put into a petri dish. In the petri dish, seven 3-instar larvae of Helicoverpa armigera per petri dish were released and the petri dish was capped with a lid having pores and stored in a thermostat room of 25° C. After 2 days of the treatment, an artificial feed (1 cm^3) was added into the petri dish. The number of killed larvae after 6 days was measured and the mortality was calculated from the following calculation formula: Mortality (%)=(number of killed larvae/number of released larvae)×100. Here, the test was carried out with two replications.

Experiment [2] has as its system Frankliniella occidentalis. Put plainly: Test Example 18: Mortality Test for Frankliniella occidentalis (Comparative Test 2). As to conditions: 48 h. As for the experimental part: In a styrol cup having an inner diameter of 7 cm, a wet filtration paper was laid, and on the paper, a leaf of kidney bean cut out so as to have the same diameter as the inner diameter of the cup was laid, followed by inoculating ten 1 instar larvae of Frankliniella occidentalis per leaf to the leaf. 10% emulsifiable concentrates of the compound of the present invention and a comparative compound were diluted with water containing a spreader to prepare drug solutions in a predetermined concentration. The drug solutions were dusted using a rotary dusting tower in an amount of 2.5 mL per styrol cup, and the cup was capped and stored in a thermostat room of 25° C. The number of killed larvae after 2 days was measured and the mortality was calculated from the following calculation formula: Mortality (%)=(number of killed larvae/number of released larvae)×100. Here, the test was carried out with two replications.

Experiment [3] has as its system Homona magnanima. Put plainly: Test Example 3: Mortality Test for Homona magnanima. As to conditions: 144 h. As for the experimental part:
(§1) A 10% emulsifiable concentrate of the compound of the present invention (depending on the type of the compound, a 10% wettable powder was subjected to the test) was diluted with water containing a spreader to prepare a drug solution in a concentration of 100 ppm. In this drug solution, a leaf of canarium album was immersed for about 10 seconds and was air-dried and then put into a petri dish. In the petri dish, five 2 instar larvae of Homona magnanima per petri dish were released and the petri dish was capped and stored in a thermostat room of 25° C. The number of killed larvae after 6 days was measured and the mortality was calculated from the same calculation formula as that in Test Example 1. Here, the test was carried out with two replications.

Experiment [4] deals with Liriomyza trifolii. Put plainly: Test Example 13: Mortality Test for Liriomyza trifolii. The note with it: 144 h, drug solution 500 ppm, kidney bean leaf with eggs immersed, after 6 days. As for the experimental part:
as §1, with “500” for “100”, “kidney bean on which Liriomyza trifolii laid eggs (10 eggs/leaf) and which was cut out to a diameter of 7 cm” for “canarium album”, “laid on” for “put into”, “wet filtration paper laid in a styrol cup having an inner diameter” for “petri dish. In the petri dish, five 2 instar larvae”, “7 cm. The styrol cup” for “Homona magnanima per petri dish were released and the petri dish”

In experiment [5] the test system is Spodoptera litura. Put plainly: Test Example 2: Mortality Test for Spodoptera litura. As to conditions: 144 h. As for the experimental part: as §1, with “10” for “100”, “Spodoptera litura” for “Homona magnanima”
In experiment [6] the test system is Plutella xylostella. Put plainly: Test Example 1: Mortality Test for Plutella xylostella. The note with it: 144 h. Here is the method:
as §1, with “10” for “100”, “Plutella xylostella” for “Homona magnanima”, “following” for “same”, “formula: Mortality (%)=(number of killed larvae/number of released larvae)×100.” for “formula as that in Test Example 1.”

The subject of experiment [7] is Bemisia argentifolii. Put plainly: Test Example 9: Mortality Test for Bemisia argentifolii. The note with it: in Solanum lycopersicum, 144 h. As for the experimental part:
(§2) In a styrol cup having an inner diameter of 7 cm, a wet filtration paper was laid, and on the paper, a cut-out leaf of tomato on which Bemisia argentifolii laid eggs (10 eggs/leaf) was laid. A 10% emulsifiable concentrate of the compound of the present invention (depending on the type of the compound, a 10% wettable powder was subjected to the test) was diluted with water containing a spreader to prepare a drug solution in a concentration of 500 ppm. The drug solution was dusted using a rotary dusting tower in an amount of 2.5 mL per styrol cup and the cup was capped and stored in a thermostat room of 25° C. The number of killed larvae after 6 days was measured and the mortality was calculated from the same calculation formula as that in Test Example 1. Here, the test was carried out with two replications.

Experiment [8] relates to Myzus persicae. The experiment is described as follows: Test Example 10: Mortality Test for Myzus persicae. As to conditions: 144 h. Here is the method: In a glass petri dish having an inner diameter of 3 cm, a wet absorbent cotton was laid, and on the cotton, a leaf of canarium album cut out so as to have the same diameter as the inner diameter of the petri dish was laid, followed by releasing 4 apterous imagines of Myzus persicae on the leaf. After one day, 10% emulsifiable concentrate of the compound of the present invention (depending on the type of the compound, a 10% wettable powder was subjected to the test) was diluted with water containing a spreader to prepare a drug solution in a concentration of 500 ppm. The drug solution was dusted using a rotary dusting tower (2.5 mg/cm^2) and the petri dish was capped and stored in a thermostat room of 25° C. The number of killed imagines after 6 days was measured and the mortality was calculated from the same calculation formula as that in Test Example 1. Here, the test was carried out with two replications.

For experiment [9], the system named is Planococcus kraunhiae. Put plainly: Test Example 11: Mortality Test for Planococcus kraunhiae. As to conditions: 144 h. As for the experimental part:
as §2, with “a” for “a cut-out”, “kidney bean cut out so as to have the same diameter as the inner diameter of the cup” for “tomato on which Bemisia argentifolii laid eggs (10 eggs/leaf)”, “laid, followed by inoculating ten 1 instar larvae of Planococcus kraunhiae per leaf to the leaf.” for “laid.”

Some results are limits rather than exact numbers.

In experiment [1], `CNC(=O)NC(=O)c1ccc(C2=NOC(c3cc(Cl)cc(Cl)c3)(C(F)(F)F)C2)cc1C` (centres unmarked) [Comparative compound A, reference compound] yielded a mortality at 3.3 ppm of 21.4%, a mortality at 10 ppm of 92.9%, a mortality at 33 ppm of 100% and a mortality at 100 ppm of 100%.

`COC(=NC(=O)c1ccc(C2=NOC(c3cc(Cl)cc(Cl)c3)(C(F)(F)F)C2)cc1C)SC` (centres unmarked) [Comparative compound B, reference compound]: in experiment [1], the mortality at 3.3 ppm worked out at 35.7%, the mortality at 10 ppm stood at 71.4%, the mortality at 33 ppm amounted to 85.7% and the mortality at 100 ppm was determined as 100%.

Take `O=C(N[C@H]1C[C@@H]1c1ccccc1)c1ccc(C2=NOC(c3ccc(Cl)c(Cl)c3)(C(F)(F)F)C2)cc1` (some centres unmarked) [Comparative compound C]: in experiment [2], the mortality at 3.3 ppm is 0%, the mortality at 10 ppm was 0%, the mortality at 33 ppm stood at 0% and the mortality at 100 ppm came to 0%.

As to `CCNC(=O)NC(=O)c1ccc(C2=NOC(c3cc(Cl)cc(Cl)c3)(C(F)(F)F)C2)cc1C` (centres unmarked) [Comparative compound D], in experiment [2], the mortality at 3.3 ppm stood at 0%, the mortality at 10 ppm came to 45.7%, the mortality at 33 ppm worked out at 100% and the mortality at 100 ppm worked out at 100%.

Regarding `COC(N)=NC(=O)c1ccc(C2=NOC(c3cc(Cl)cc(Cl)c3)(C(F)(F)F)C2)cc1C` (centres unmarked) [No. 2-003, N-[Amino(methoxy)methylidene]-4-[5-(3,5-dichlorophenyl)-5-trifluoromethyl-4,5-dihydroisoxazole-3-yl]-2-methyl benzoic acid amide], the mortality at 100 ppm in experiment [3] is no less than 80%. In [1], this compound gave a mortality at 0.1 ppm of 57.1%, a mortality at 0.3 ppm of 85.7%, a mortality at 1 ppm of 100% and a mortality at 3.3 ppm of 100%. The same compound yielded a mortality at 10 ppm in experiment [1] of 100%.

As for `CSC(N)=NC(=O)c1ccc(C2=NOC(c3cc(Cl)cc(Cl)c3)(C(F)(F)F)C2)cc1C` (centres unmarked) [No. 2-010, N-(Amino(methylthio)methylidene)-4-(5-(3,5-dichlorophenyl)-5-trifluoromethyl-4,5-dihydroisoxazole-3-yl)-2-methyl benzoic acid amide], the mortality at 100 ppm in experiment [3] is no less than 80%. The mortality at 500 ppm in [4] is no less than 80%.

For the compound `CNC(N)=NC(=O)c1ccc(C2=NOC(c3cc(Cl)cc(Cl)c3)(C(F)(F)F)C2)cc1C` (centres unmarked) [No. 2-012, N-[Amino(methylamino)methylidene]-4-[5-(3,5-dichlorophenyl)-5-trifluoromethyl-4,5-dihydroisoxazole-3-yl]-2-methyl benzoic acid amide], the mortality at 100 ppm in experiment [5] and in [6] was no less than 80% in each case.

In experiment [3], `CNC(=NC(=O)c1ccc(C2=NOC(c3cc(Cl)cc(Cl)c3)(C(F)(F)F)C2)cc1C)OC` (centres unmarked) [No. 3-001, N-[Methoxy(methylamino)methylidene]-4-[5-(3,5-dichlorophenyl)-5-trifluoromethyl-4,5-dihydroisoxazole-3-yl]-2-methyl benzoic acid amide] came in with a mortality at 100 ppm of no less than 80%. The same compound registered a mortality at 500 ppm in experiment [7] of no less than 80%. In [8], the mortality at 500 ppm is no less than 80%. In experiment [1], this compound came in with a mortality at 0.1 ppm of 0%, a mortality at 0.3 ppm of 21.4%, a mortality at 1 ppm of 71.4% and a mortality at 3.3 ppm of 100%. The compound further gave a mortality at 10 ppm in experiment [1] of 100%. Also, in [9], the mortality at 500 ppm was no less than 80%.
